We go through 10 molecules from patent publication US4208424A, “Lipogenesis inhibition by certain esters of substituted benzodioxincarboxylic acids” (Shell Oil Company, priority 1979, dated 1980).

For this assay, the system named is lipogenesis in swine adipose tissue. Kind of assay: inhibition of lipogenesis (incorporation of radioactive glucose carbon into lipid) in swine adipose tissue slices. The format is cell-based. Conditions: 100 micrograms per milliliter, 37° C., 2 hours, glucose-U^14 C, insulin, 5% DMSO, triplicate. The source says: The manner in which they cause this effect is not known with certainty; it is believed that they interfere with the synthesis of fatty acids in the tissues. Their effectiveness for this purpose has been ascertained by immersing samples of swine adipose tissue in a liquid medium containing radioactive glucose and the test chemical for a period of time, then isolating the lipid from the treated tissue and determining the incorporation of the radioactive carbon into lipid by means of scintillation counting techniques. These tests were conducted in swine adipose tissues because in swine, the primary site of lipogenesis--i.e., fatty acid synthesis--appears to be adipose tissue.
Described in more detail, the tests were conducted according to the following general procedure:
150 milligrams of slices of swine adipose tissue were incubated at 37° C. for 2 hours with shaking in 3 milliliters of Krebs-Ringer bicarbonate solution containing one-half the normal calcium ion concentration, 60 micromoles of glucose, 0.5 micro-Curie of glucose-U^14 C, and 300 microunits of insulin, and 5% dimethyl sulfoxide (DMSO). The test compounds were added as a solution or suspension in DMSO and were present at a concentration of 100 micrograms per milliliter of the incubation mixture.
The incubation was terminated by addition of 0.25 milliliter of 1 N sulfuric acid. The resulting mixture was extracted with a total of 25 milliliters of chloroform/methanol (2:1 v/v). The extracts were washed according to Folch et al. (J. Biol. Chem. 226, 497-509, (1957)), air dried, and counted in a liquid scintillation counter with 15 m milliliters of counting fluid (two parts toluene containing 0.4% w/v New England Nuclear Omnifluor/1 part Triton X-100). The tests were conducted in triplicate and were accompanied by control tests in which all ingredients,proportions and conditions were the same except that no test compound was included. From the data obtained were calculated the percent inhibition of lipid synthesis by the test compounds in each case. The data obtained from the tests are set out in Table 1, as the percent inhibition of lipogenesis compared to the results obtained in the control tests wherein only the test compound was omitted.
As for `CCOC(=O)C1COc2ccccc2O1` (stereo not shown) [Compound 1, Ethyl 2,3-dihydro-1,4-benzodioxin-2-carboxylate], the “Percent Inhibition (of lipogenesis compared to control tests)” value (“Percent Inhibition” for short) is reported as 22%. `CCOC(=O)C1COc2cc(C)c(C)cc2O1` (stereo not shown) [Compound 6, Ethyl 2,3-dihydro-6,7-dimethyl-1,4-benzodioxin-2-carboxylate]: the “Percent Inhibition” value was 29%. Regarding `CCOC(=O)C1COc2cc(-c3ccccc3)ccc2O1` (stereo not shown) [Compound 7, Ethyl 2,3-dihydro-6-phenyl-1,4-benzodioxin-2-carboxylate], the “Percent Inhibition” value is listed as 21%. For the molecule `CCOC(=O)C1COc2ccc(-c3ccccc3)cc2O1` (stereo not shown) [Compound 8, Ethyl 2,3-dihydro-7-phenyl-1,4-benzodioxin-2-carboxylate], the “Percent Inhibition” value was 28%.

With `CCOC(=O)C1COc2ccc(C(C)O)cc2O1` (stereo not shown) [Compound 9, Ethyl 2,3-dihydro-7-(1-hydroxyethyl)-1,4-benzodioxin-2-carboxylate], the “Percent Inhibition” value was 90%. As for “Ethyl 2,3-dihydro-6(and 7)-fluoro-1,4-benzodioxin-2-carboxylate [Compound 3]”, the “Percent Inhibition” value is 48%. As for “Ethyl 2,3-dihydro-6(and 7)-methoxy-1,4-benzodioxin-2-carboxylate [Compound 10]”, the figure is 85%; as for “Ethyl 2,3-dihydro-6(and 7)-methyl-1,4-benzodioxin-2-carboxylate [Compound 2]”, 30%. On to “Ethyl 2,3-dihydro-8(and 5)-methoxy-1,4-benzodioxin-2-carboxylate [Compound 5]”, for which the “Percent Inhibition” value is on record as 86%. Regarding “Ethyl 6(and 7)-bromo-2,3-dihydro-1,4-benzodioxin-2-carboxylate [Compound 4]”, the “Percent Inhibition” value amounted to 43%.
